This passage reports cytotoxicity results from ChEMBL document CHEMBL3507680, “University of Dundee, Gates Library screen for HepG2 cell viability”.

The series is described as follows: Human HepG2 cell viability assay in 384 well format. The class given is toxicity, cell-based. Also on record: dose 125 nL, time 70.5 hour; concentration not given beside the values. To be noted: HepG2 cells, read-out: Inhibition.

For the compound `CSc1ccc(C(=O)C2CCCN(C(=O)CCn3cncn3)C2)cc1` (configuration not stated), the cytotoxicity at 70.5 h is -16.6%. For `COCCN1CCc2onc(C(c3ccccc3)c3ccccc3)c2C1`, the cytotoxicity at 70.5 h is -8.42%. Under `O=C1CCCc2occ(C(=O)N3CCCC(O)(CO)C3)c21` (configuration not stated) stands 31%; under `C[C@@H]1CN(C(=O)C2CCS(=O)(=O)CC2)CC[C@@]1(O)C1CCOCC1`, -11%; under `CCOc1ccc(-c2ccnc(C3CC3)n2)cc1C(=O)O`, -3.39%.

`Cc1noc(CC2CCN(Cc3ccc(CCC(C)(C)O)cc3)CC2)n1`: the cytotoxicity at 70.5 h was -10.5%. For `COc1cccc2c1OCCCN(c1nc3c(c(=O)[nH]1)CCNCC3)C2`, the cytotoxicity at 70.5 h was -3.8%. Under `O=C1CC(NS(=O)(=O)N2CCOCC2)CN1Cc1ccc(F)cc1` (configuration not stated) stands -2.75%.

Regarding `CCOCCn1nc(C2CCNCC2)n(Cc2ccccc2)c1=O`, the cytotoxicity at 70.5 h came to 3.02%. Under `CCCc1cncnc1N1CCC(NCc2ccncc2)CC1` stands -13.1%; under `CC(C)c1ccc(CN2CCCC3(CC2)CN(C)C(=O)O3)cc1` (configuration not stated), -1.93%; under `CCc1nnc(N2CCN(c3ccccc3)C(=O)C2)o1`, -7.77%.

Regarding `CNc1nc(C(=O)NCc2cccnc2N(C)C2CCCCC2)cs1`, the cytotoxicity at 70.5 h was determined as 12.4%.

For the compound `Cc1ccc(C(=O)N2CCC3(CC2)C(=O)NCCN3C)cc1O`, the cytotoxicity at 70.5 h was -6.34%. In the case of `COc1c(F)cc(CN2CCC3(CC2)C(C(=O)O)CC(=O)N3C)cc1Cl` (configuration not stated), the cytotoxicity at 70.5 h was -3.91%. `Cc1nc(C2CCCNC2)cc(N2CCc3nc(N)sc3C2)n1` (configuration not stated): the cytotoxicity at 70.5 h is 17.4%.

For the compound `CC(C)N1CCC(CC(=O)N2CCC(C(O)c3nccn3C)CC2)CC1` (configuration not stated), the cytotoxicity at 70.5 h is -3.4%. For `Cc1ccnc(NCc2cn3c(C)csc3n2)n1`, the cytotoxicity at 70.5 h was -11.5%. Turning to `Cc1nccn1CCC(=O)N1CCC2(CCC(=O)N(CC3CC3)C2)CC1`, the cytotoxicity at 70.5 h amounted to 2.21%. With `CNC(=O)C1(N(C)CCc2ccccc2)Cc2ccccc2C1`, the cytotoxicity at 70.5 h is -1.19%. With `CCCN1CCN(Cc2cccc(OC)c2)[C@H]2CS(=O)(=O)C[C@H]21`, the cytotoxicity at 70.5 h came out at 25.9%. For `NCC1Cc2cccc(-c3nccc(N4CCC(O)CC4)n3)c2O1` (configuration not stated), the cytotoxicity at 70.5 h was 7.11%.

In the case of `Cc1nn2c(N3CCS(=O)(=O)CC3)cc(-c3ccccc3)nc2c1C`, the cytotoxicity at 70.5 h is 1.53%.

Regarding `CC1CCN(CC(=O)N(Cc2ccccc2)Cc2nccs2)C1=O` (configuration not stated), the cytotoxicity at 70.5 h was -11.6%. Under `Cc1ccc(C(=O)N2CCCC3(C2)C(=O)N(C)c2ccccc23)c(=O)[nH]1` (configuration not stated) stands -10.2%. Turning to `CC(C)=CCN1C[C@H]2CC[C@@H]1CN(C(=O)c1ccc3c(c1)OCO3)C2`, the cytotoxicity at 70.5 h was 1.98%.

As for `CCC(CO)N(Cc1ccco1)C(=O)c1cccc(C)c1O` (configuration not stated), the cytotoxicity at 70.5 h was -0.632%. Regarding `COc1ccc(-c2ccncc2)cc1CNC1CCCC1`, the cytotoxicity at 70.5 h was -4.27%. Take `Cc1nc2c(c(N3CCC(CCn4cccn4)CC3)n1)CCNCC2`: the cytotoxicity at 70.5 h is -2.46%. Turning to `COc1nccnc1N1CCC2(CCCN(C(C)C)C2=O)C1` (configuration not stated), the cytotoxicity at 70.5 h was -4.89%. To `CCN(Cc1noc(C)n1)C(=O)CCc1scnc1C` belongs 3.89%; to `Cc1ccc2oc(=O)n(CCC(=O)N3CCN(C)C(=O)C3)c2c1`, -3.44%; to `O=C(NCCc1cccnc1)c1ccc2nccn2c1`, -16.8%.

For `Cn1ccnc1CN1CCCC(CCc2ccc(F)c(F)c2)C1` (configuration not stated), the cytotoxicity at 70.5 h was -1.61%. Regarding `CCc1ncc2c(n1)CN(C(=O)Cc1cc(OC)cc(OC)c1)C2`, the cytotoxicity at 70.5 h is -14%. `Cc1nc2c(c(N[C@H](C(N)=O)C(C)C)n1)Cc1ccccc1OC2`: the cytotoxicity at 70.5 h was -11.2%. With `COc1ccc(Cl)cc1-n1c(COC(C)C)n[nH]c1=O`, the cytotoxicity at 70.5 h was -9.9%. Take `CCc1nc(C)c(CC(=O)N2CCC3(CC2)OCCCC3OC)c(=O)[nH]1` (configuration not stated): the cytotoxicity at 70.5 h is -6.31%. Turning to `CC(C)N1CCCC(C(=O)NCCCc2cnn(C)c2)C1` (configuration not stated), the cytotoxicity at 70.5 h was 17.4%. With `CCc1cc(NC(C)(C)C)nc(N2CCOCC2)n1`, the cytotoxicity at 70.5 h is -12%.

As for `COc1ccc2c(c1)C(C(=O)NCCCN1CCN(C)CC1)CC(=O)N2` (configuration not stated), the cytotoxicity at 70.5 h was -25%.

`Cc1ccnc(CC(C)N(C)Cc2ccc3c(c2)CCO3)c1` (configuration not stated): the cytotoxicity at 70.5 h was -5.48%.

In the case of `COc1cc(N2CCC(c3nccn3CCCN(C)C)CC2)nc(N)n1`, the cytotoxicity at 70.5 h is -1.61%. On to `O=C(NCC1=CCCCC1)C(c1cccnc1)N1CCOCC1` (configuration not stated), for which the cytotoxicity at 70.5 h is -1.14%. In the case of `OC1CCN(C2CCN(Cc3cnc(-c4cccs4)nc3)CC2)CC1`, the cytotoxicity at 70.5 h turned out to be 12.5%. Regarding `CCc1ncc(C(=O)NCCn2c(C)cc(C)nc2=O)cn1`, the cytotoxicity at 70.5 h was -1.56%. For `CCc1cccc(OC2CN(C(=O)[C@@H](N)[C@@H](C)O)C2)c1`, the cytotoxicity at 70.5 h is -8.46%. With `Cc1ccnc(N2CCN(Cc3ccccc3)CC(O)C2)c1` (configuration not stated), the cytotoxicity at 70.5 h was -3.12%.

In the case of `Cc1ccc(C(=O)N2[C@@H]3CC[C@H]2CN(C)C(=O)C3)c(=O)[nH]1`, the cytotoxicity at 70.5 h was -8.22%. With `CCN1CCc2[nH]cnc2C12CCN(Cc1ccc3nsnc3c1)CC2`, the cytotoxicity at 70.5 h is -5.41%. On to `Cc1cc2ccccc2n1CCC(=O)N1CCCC1Cn1cccn1` (configuration not stated), for which the cytotoxicity at 70.5 h was -9.07%. `CCCc1nc(C)cc(N2Cc3cnn(CCO)c3C2)n1`: the cytotoxicity at 70.5 h turned out to be 0.818%. Under `COCCC1(C(=O)O)CCCN(Cc2ccccc2OCCO)C1` (configuration not stated) stands -8.44%; under `O=C(CCc1cn[nH]c1)N1C[C@H](CO)C[C@H](CN2CCOCC2)C1`, -8.81%; under `CCCc1nnc(N2CCN(c3ccccc3Cl)CC2)o1`, -0.178%.

On to `Cc1ccc(C2(O)CCN(C(=O)Cn3cc(C)c(=O)[nH]c3=O)CC2)nc1`, for which the cytotoxicity at 70.5 h was -7.28%. For the compound `CN(Cc1ccccc1)c1ncccc1CNC1CN2CCC1CC2` (configuration not stated), the cytotoxicity at 70.5 h was -6.82%. Under `O=C(C1CCS(=O)(=O)CC1)N1C[C@H]2CC[C@@H]1CN(Cc1ccccc1)C2` stands 10.4%; under `CSCC(=O)N1CCC(c2nccn2Cc2cscn2)CC1`, -2.59%.

Consider `CC[C@@H](c1ccccc1)n1c(CN)n[nH]c1=O`, for which the cytotoxicity at 70.5 h was -13.5%. Consider `COCCc1noc(-c2ccc(N[C@H]3CCCCNC3=O)nc2)n1`, for which the cytotoxicity at 70.5 h amounted to 1.36%. In the case of `NC(=O)N1CCCC(C(=O)NCc2noc(Cc3ccccc3)n2)C1` (configuration not stated), the cytotoxicity at 70.5 h is -12.7%. On to `CCc1ncc(C(=O)N2CCN(Cc3ncccc3C)CC2)cn1`, for which the cytotoxicity at 70.5 h was -14.7%.

In the case of `C[C@@H]1CN(CC(C)(C)N2CCCCC2)CC[C@@]1(O)C1CC1`, the cytotoxicity at 70.5 h was -5.05%.

Turning to `O=c1cc(N2CCNCC2)cnn1CCCn1cccn1`, the cytotoxicity at 70.5 h was -9.24%. As to `CN1N=C(C(=O)N2CCCC(CCc3ccccc3F)C2)CCC1=O` (configuration not stated), the cytotoxicity at 70.5 h was -5.83%. In the case of `O=C(c1ccsc1)N1CCc2c(nc(-c3ccncc3)[nH]c2=O)C1`, the cytotoxicity at 70.5 h is -6.38%. To `Cc1nc(N(C)C2CCCCC2)ncc1C(C)NC(=O)c1cccnc1` (configuration not stated) belongs -5.07%; to `CC(CCc1ccc(O)cc1)NC1CCN(S(C)(=O)=O)CC1` (configuration not stated), -4.22%. In the case of `Cc1nc(N)ccc1CC1COc2ccccc2C1` (configuration not stated), the cytotoxicity at 70.5 h turned out to be 15%. To `COCCC1(CO)CCCN(C(=O)c2cc(Cl)ccc2F)C1` (configuration not stated) belongs -11%. For the compound `O=C1CC(c2ncc(-c3ccc4c(c3)OCCO4)[nH]2)CN1C1CCCC1` (configuration not stated), the cytotoxicity at 70.5 h was -4.48%. On to `COCCN(C)C[C@H]1C[C@H](CO)CN(C(=O)c2ccc(=O)n(C)c2)C1`, for which the cytotoxicity at 70.5 h is -3.23%.

On to `N[C@@H]1c2ccccc2C2(CCN(c3cccc(C(F)(F)F)n3)CC2)[C@H]1O`, for which the cytotoxicity at 70.5 h amounted to 5.4%. On to `Cn1ncc2c(NCC3CCS(=O)(=O)C3)nc(-c3ccncc3)nc21` (configuration not stated), for which the cytotoxicity at 70.5 h is 21.3%.

For `CC(=O)Nc1cccc(C(=O)N2CCc3c(nc(N(C)C)[nH]c3=O)C2)c1`, the cytotoxicity at 70.5 h stood at 16.1%. To `CCS(=O)(=O)c1ncc(CN(C)Cc2ccccc2Cl)n1CCOC` belongs -2.37%; to `CN(C)C[C@H]1C[C@@H](CO)CN(C(=O)c2cc(=O)[nH]c3cc(F)ccc23)C1`, -2.71%; to `CCOc1ccccc1CN(C)C(=O)CN1C(=O)OC[C@@H]1C(C)C`, 15.5%. To `Cc1cccc(C(C(=O)N2CC(c3ccncc3)C2)N(C)C)c1` (configuration not stated) belongs 12.4%; to `O=C(O)c1cccc(CC2CCN(c3ncccn3)CC2)c1`, 3.25%. `CCN(Cc1ccncc1)c1cc(C2CCNCC2)nc(C)n1`: the cytotoxicity at 70.5 h is 19.5%.

For `COCCN(Cc1ccccn1)Cc1sccc1C`, the cytotoxicity at 70.5 h was -10.3%. Under `CCn1cc(CN2CCC(c3ccncc3)CC2)cc1C#N` stands -5.65%. On to `CC(=O)N[C@H]1CCN(c2nc(C)nc3c2c(C)nn3C)C1`, for which the cytotoxicity at 70.5 h is -8.71%. `COc1cc(CN2CCN(CC3CC3)[C@@H]3CS(=O)(=O)C[C@@H]32)cc(OC)c1`: the cytotoxicity at 70.5 h stood at 3.14%.

Regarding `COCCN1CCN(Cc2ccncc2)[C@H]2CS(=O)(=O)C[C@H]21`, the cytotoxicity at 70.5 h was -6.81%. Turning to `COc1ccc(OC)c(-c2nc(CN(C)Cc3nncn3C)c(C)o2)c1`, the cytotoxicity at 70.5 h is -6.73%. Consider `CSCCC(=O)N1CCC(Oc2cc(C)ccc2F)(C(=O)O)CC1`, for which the cytotoxicity at 70.5 h is -7.4%. On to `O=C(CCc1ccsc1)N1CCC(Cc2ccc(CO)cc2)C1` (configuration not stated), for which the cytotoxicity at 70.5 h was -3.39%. For the compound `O=C1N(Cc2ccc(F)c(F)c2)CCCC12CCN(C1CCSCC1)C2` (configuration not stated), the cytotoxicity at 70.5 h amounted to 9.34%.

For `C=Cc1ccc(C(=O)N2CCCC(Nc3ccc(F)cc3)C2)cc1` (configuration not stated), the cytotoxicity at 70.5 h is 17%. As to `Cc1cc(N2CCN3CCCCC3C2)n2nc(C)c(C)c2n1` (configuration not stated), the cytotoxicity at 70.5 h came out at 1.57%. As to `Cc1cccc(CN2C[C@H]3OC(=O)N(CCCN4CCOCC4)[C@H]3C2)n1`, the cytotoxicity at 70.5 h was -10.1%.

`O=S(=O)(NCC1CCOc2ccccc2C1)N1CCOCC1` (configuration not stated): the cytotoxicity at 70.5 h was -14.9%.

As for `COCC1CCCN(C(=O)c2cc(Cn3ccc4ccccc43)[nH]n2)C1` (configuration not stated), the cytotoxicity at 70.5 h was -6.02%. With `O=C(c1ccc(F)c(F)c1)N1CCCC(Nc2ccc(F)cc2)C1` (configuration not stated), the cytotoxicity at 70.5 h is -5.1%.
